Test system: green peach aphid (Myzus persicae)
Assay: Myzus test (MYZUPE spray treatment)
Type: in vivo
Settings: after 5 days; application rate 500 g/ha; spray on Chinese cabbage discs; 100% = all aphids killed
Description: Myzus Test (MYZUPE Spray Treatment) Solvent: 78 parts by weight of acetone and 1.5 parts by weight of dimethylformamide Emulsifier: 0.5 part by weight of alkylaryl polyglycol ether To prepare an active ingredient formulation, 1 part by weight of active ingredient is mixed with the specified amounts of solvent and emulsifier, and the concentrate is diluted to the desired concentration with emulsifier-containing water. Discs of Chinese cabbage (Brassica pekinensis) infested with all stages of the green peach aphid (Myzus persicae) are sprayed with an active ingredient formulation of the desired concentration. After the desired time, the efficacy in % is determined. 100% means that all aphids have been killed; 0% means that no aphids have been killed.

For `CC(=O)OCC(=CC(=O)OC(C)C)N(C)Cc1ccc(Cl)nc1` [Compound 1], the efficacy in % was 80%.

Reference: patent US8343893B2, “Substituted enaminocarbonyl compounds” (Bayer Cropscience AG, priority 2009, dated 2013)
